Measurements reported in US8829007B2 (priority 2009, dated 2014).
Read-outs that look alike come from different tables or passages of the source.

Tested on: influenza A virus (A/PR/8/34)
Test: microbe, parasite or virus in culture
Assay type: cell-based
[1] = mean all, A/PR/8/34 infected MDCK cells, CPE assay, read-out: IC50
[2] = Influenza A virus, PR/8, MDCK, mean all, A/PR/8/34 infected MDCK cells, CPE assay, read-out: IC50
[3] = Influenza A virus, PR/8, MDCK, MDCK cells infected with A/PR/8/34, cell protection (CPE), read-out: IC50 (mean all)

For CC(=O)N1CCC[C@H](Nc2ccnc(-c3c[nH]c4ncc(Cl)cc34)n2)C1 [Compound 485], which IC50 (Influenza A virus, PR/8, MDCK, MDCK cells infected with A/PR/8/34, survival of infected cells, class symbols, read-out: IC50 (mean all)) is on record?
Its IC50 is 5 to 20 µM.

With CCCCS(=O)(=O)N1CCC(Nc2nc(-c3c[nH]c4ncc(Cl)cc34)ncc2F)C1 (stereo not drawn) [Compound 406] as the molecule, how does the IC50 [1] read?
The IC50 was greater than 20 µM.

CCCNC(=O)N[C@@H]1CCCC[C@H]1Nc1nc(-c2c[nH]c3ncc(Cl)cc23)ncc1F (relative stereo) [Compound 368, 1-[trans-2-[[2-(5-chloro-1H-pyrrolo[2,3-b]pyridin-3-yl)-5-fluoro-pyrimidin-4-yl]amino]cyclohexyl]-3-propyl-urea] was tested. Which IC50 [2] did it give?
The IC50 was greater than 20 µM.

How did the IC50 [2] turn out when O=C(NC1CCCCC1Nc1nc(-c2c[nH]c3ncc(Cl)cc23)ncc1F)C1CCCC1 (stereo not drawn) [Compound 364, N-[(trans-2-[[2-(5-chloro-1H-pyrrolo[2,3-b]pyridin-3-yl)-5-fluoro-pyrimidin-4-yl]amino]cyclohexyl]cyclopentanecarboxamide] was run?
The IC50 was greater than 20 µM.

How did the IC50 [2] turn out when O=C(N[C@@H]1CCCC[C@@H]1Nc1nc(-c2c[nH]c3ncc(Cl)cc23)ncc1F)C1CCCC1 (relative stereo) [Compound 335, N-[cis-2-[[2-(5-chloro-1H-pyrrolo[2,3-b]pyridin-3-yl)-5-fluoro-pyrimidin-4-yl]amino]cyclohexyl]cyclopentanecarboxamide] was run?
Its IC50 is greater than 20 µM.

How did the IC50 [2] turn out when CN(C)C(=O)N[C@@H]1CCCC[C@@H]1Nc1nc(-c2c[nH]c3ncc(Cl)cc23)ncc1F (relative stereo) [Compound 431, 3-[cis-2-[[2-(5-chloro-1H-pyrrolo[2,3-b]pyridin-3-yl)-5-fluoro-pyrimidin-4-yl]amino]cyclohexyl]-1,1-dimethyl-urea] was run?
The IC50 was less than 5 µM.

For COC(CN1CCC[C@@H](CNc2nc(-c3c[nH]c4ncc(Cl)cc34)ncc2F)C1)OC [Compound 132, (S)-2-(5-chloro-1H-pyrrolo[2,3-b]pyridin-3-yl)-N-((1-(2,2-dimethoxyethyl)piperidin-3-yl)methyl)-5-fluoropyrimidin-4-amine], which IC50 [3] is on record?
The IC50 was greater than 20 µM.

For OCCN1CCC[C@@H](CNc2nc(-c3c[nH]c4ncc(Cl)cc34)ncc2F)C1 [Compound 133, (S)-2-(3-((2-(5-chloro-1H-pyrrolo[2,3-b]pyridin-3-yl)-5-fluoropyrimidin-4-ylamino)methyl)piperidin-1-yl)ethanol], which IC50 [3] is on record?
The IC50 was greater than 20 µM.

CCCS(=O)(=O)N1CCCC[C@@H]1CNc1nc(-c2c[nH]c3ncc(Cl)cc23)ncc1F [Compound 328, (R)-2-(5-chloro-1H-pyrrolo[2,3-b]pyridin-3-yl)-5-fluoro-N-((1-(propylsulfonyl)piperidin-2-yl)methyl)pyrimidin-4-amine] was tested. Which IC50 [2] did it give?
Its IC50 is greater than 20 µM.

For CCCNC(=O)N[C@@H]1CCCC[C@@H]1Nc1nc(-c2c[nH]c3ncc(Cl)cc23)ncc1F (relative stereo) [Compound 339, 1-[cis-2-[[2-(5-chloro-1H-pyrrolo[2,3-b]pyridin-3-yl)-5-fluoro-pyrimidin-4-yl]amino]cyclohexyl]-3-propyl-urea], which IC50 [2] is on record?
The IC50 was 5 to 20 µM.

O=C(OC1CCOC1)N1CCC(Nc2nc(-c3c[nH]c4ncc(Cl)cc34)ncc2F)CC1 (stereo not drawn) [Compound 420] was tested. Which IC50 [1] did it give?
Its IC50 is greater than 20 µM.

How did the IC50 (MDCK cells infected with A/PR/8/34, cell protection (CPE), read-out: IC50 (mean all)) turn out when NC1CCCCC1Nc1nc(-c2c[nH]c3ncccc23)ncc1F (stereo not drawn) [Compound 206, N-[5-fluoro-2-(1H-pyrrolo[5,4-b]pyridin-3-yl)pyrimidin-4-yl]cyclohexane-cis-1,2-diamine] was run?
The IC50 was less than 5 µM.

For C[C@H](CO)CN1CCCC(CNc2nc(-c3c[nH]c4ncc(Cl)cc34)ncc2F)C1 (stereo partly drawn) [Compound 135], which IC50 [3] is on record?
Its IC50 is greater than 20 µM.

Which IC50 [2] does the source give for O=S(=O)(C1CC1)N1CC[C@H](Nc2nc(-c3c[nH]c4ncc(Cl)cc34)ncc2F)C1 [Compound 401, (S)-2-(5-chloro-1H-pyrrolo[2,3-b]pyridin-3-yl)-N-(1-(cyclopropylsulfonyl)pyrrolidin-3-yl)-5-fluoropyrimidin-4-amine] here?
Its IC50 is 5 to 20 µM.

With CC(=O)N1CCC[C@H](CNc2nc(-c3c[nH]c4ncccc34)ncc2F)C1 [Compound 268, (R)-1-(3-((5-fluoro-2-(1H-pyrrolo[2,3-b]pyridin-3-yl)pyrimidin-4-ylamino)methyl)piperidin-1-yl)ethanone] as the molecule, how does the IC50 [3] read?
The IC50 was 5 to 20 µM.
